Measured values: patent US10183950B2, “Thienopyrimidine inhibitors of atypical protein kinase C” (Cancer Research Technology Limited, priority 2011, dated 2019)
pIC50: −log10 of the molar value.

The compounds below were run against T1, full-length human PKCι (Homo sapiens, UniProt P41743) (assay: PKCι IC50 IMAP fluorescence polarisation assay, full-length enzyme). Conditions: full length PKCi at 15 μM ATP; read-out: IC50 in IMAP assay against full length PKCi.
T1 construct: Recombinant, full-length human PKCι expressed in Sf21 insect cells is also commercially available; purchased; host or cells: Sf21 insect cells
T1 sequence (P41743 1-596): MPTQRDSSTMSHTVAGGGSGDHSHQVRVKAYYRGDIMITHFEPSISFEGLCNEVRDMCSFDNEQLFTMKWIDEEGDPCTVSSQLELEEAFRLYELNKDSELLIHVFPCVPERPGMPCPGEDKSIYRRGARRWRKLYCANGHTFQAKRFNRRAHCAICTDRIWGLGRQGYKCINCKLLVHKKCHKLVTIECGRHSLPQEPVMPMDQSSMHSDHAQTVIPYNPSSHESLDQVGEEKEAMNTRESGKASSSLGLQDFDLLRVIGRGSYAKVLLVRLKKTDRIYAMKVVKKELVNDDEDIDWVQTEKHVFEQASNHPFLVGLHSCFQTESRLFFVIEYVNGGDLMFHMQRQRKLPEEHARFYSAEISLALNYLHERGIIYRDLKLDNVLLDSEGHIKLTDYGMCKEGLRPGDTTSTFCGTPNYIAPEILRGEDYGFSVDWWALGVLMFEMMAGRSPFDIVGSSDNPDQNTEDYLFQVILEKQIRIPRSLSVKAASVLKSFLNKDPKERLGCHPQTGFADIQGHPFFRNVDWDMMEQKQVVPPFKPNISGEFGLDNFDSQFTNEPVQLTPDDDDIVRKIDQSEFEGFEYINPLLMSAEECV
Assay type: biochemical

| SMILES | pIC50 |
| --- | --- |
| CC(C)(C)c1sc2c(NC[C@@H](N)Cc3ccccc3)nc(-c3ccncc3)nc2c1-c1ccccc1 [compound 451, (S)-N*1*-(6-tert-Butyl-7-phenyl-2-pyridin-4-yl-thieno[3,2-d]pyrimidin-4-yl)-3-phenyl-propane-1,2-diamine] | 4.40 to 5.00 |
| CCC(C)(C)C(=O)Nc1csc2c(N[C@@H]3CCNC3)nc(-c3ccncc3)nc12 [compound 471, 2,2-Dimethyl-N-[2-pyridin-4-yl-4-((R)-pyrrolidin-3-ylamino)-thieno[3,2-d]pyrimidin-7-yl]-butyramide] | 4.40 to 5.00 |
| N[C@@H]1CCN(c2nc(-c3ccncc3)nc3ccsc23)C1 [compound 318, (R)-1-(2-Pyridin-4-yl-thieno[3,2-d]pyrimidin-4-yl)-pyrrolidin-3-ylamine] | 4.40 to 5.00 |
| O=S(=O)(Nc1cc(-c2nc(N[C@@H]3CCNC3)c3sccc3n2)ccn1)C1CC1 [compound 622, Cyclopropanesulfonic acid {4-[4-((R)-pyrrolidin-3-ylamino)-thieno[3,2-d]pyrimidin-2-yl]-pyridin-2-yl}-amide] | 4.40 to 5.00 |
| Fc1cnccc1-c1nc(N[C@@H]2CCNC2)c2scc(Nc3ccccn3)c2n1 [compound 495, 2-(3-Fluoro-pyridin-4-yl)-N*7*-pyridin-2-yl-N*4*- (R)-pyrrolidin-3-yl-thieno[3,2-d]pyrimidine-4,7-diamine] | 4.40 to 5.00 |
| CC(C)(C)c1sc2c(NCCN)nc(-c3ccncc3)nc2c1Br [compound 333, N*1*-(7-Bromo-6-tert-butyl-2-pyridin-4-yl-thieno[3,2-d]pyrimidin-4-yl)-ethane-1,2-diamine] | 4.40 to 5.00 |
| c1cc(-c2nc(N[C@@H]3CCNC3)c3sccc3n2)cc(NC2CC2)n1 [compound 594, [2-(2-Cyclopropylamino-pyridin-4-yl)-thieno[3,2-d]pyrimidin-4-yl]-(R)-pyrrolidin-3-yl-amine] | 5.00 to 6.00 |
| CC(C)(O)CC#Cc1csc2c(NC[C@@H](N)Cc3ccccc3)nc(-c3ccncc3)nc12 [compound 537, 5-[4-((S)-2-Amino-3-phenyl-propylamino)-2-pyridin-4-yl-thieno[3,2-d]pyrimidin-7-yl]-2-methyl-pent-4-yn-2-ol] | 6.00 to 7.00 |
| Cc1cccc(Nc2csc3c(N[C@@H]4CCNC4)nc(-c4ccncc4F)nc23)c1 [compound 492, 2-(3-Fluoro-pyridin-4-yl)-N*4*-(R)-pyrrolidin-3-yl-N*7*-m-tolyl-thieno[3,2-d]pyrimidine-4,7-diamine] | 4.40 to 5.00 |
| NC(=O)CNc1nc(-c2ccncc2)nc2c(Br)csc12 [compound 338, 2-(7-Bromo-2-pyridin-4-yl-thieno[3,2-d]pyrimidin-4-ylamino)-acetamide] | 4.40 to 5.00 |
| CCN(CC)C(=O)c1csc2c(NC[C@@H](N)Cc3ccccc3)nc(-c3ccncc3)nc12 [compound 552, 4-((S)-2-Amino-3-phenyl-propylamino)-2-pyridin-4-yl-thieno[3,2-d]pyrimidine-7-carboxylic acid diethylamide] | 5.00 to 6.00 |
| Clc1cnccc1-c1nc(N[C@@H]2CCNC2)c2sccc2n1 [compound 322, [2-(3-Chloro-pyridin-4-yl)-thieno[3,2-d]pyrimidin-4-yl]-(R)-pyrrolidin-3-yl-amine] | 5.00 to 6.00 |
| Brc1csc2c(N[C@@H]3CCCNC3)nc(-c3ccncc3)nc12 [compound 343, (7-Bromo-2-pyridin-4-yl-thieno[3,2-d]pyrimidin-4-yl)-(R)-piperidin-3-yl-amine] | 6.00 to 7.00 |
| N[C@H](CNc1nc(-c2ccncc2)nc2c(C#Cc3ccccc3)csc12)Cc1ccccc1 [compound 402, (S)-3-Phenyl-N*1*-(7-phenylethynyl-2-pyridin-4-yl-thieno[3,2-d]pyrimidin-4-yl)-propane-1,2-diamine] | 6.00 to 7.00 |
| COc1cccc(OC(C)C)c1-c1c(C)sc2c(NC[C@@H](N)Cc3ccccc3)nc(-c3ccncc3)nc12 [compound 440, (S)-N*1*-[7-(2-Isopropoxy-6-methoxy-phenyl)-6-methyl-2-pyridin-4-yl-thieno[3,2-d]pyrimidin-4-yl]-3-phenyl-propane-1,2-diamine] | 4.40 to 5.00 |

Other lines, results leading:

| pIC50 | SMILES |
| --- | --- |
| 6.00 to 7.00 | N[C@H](CNc1nc(-c2ccncc2)nc2c(-c3ccc[nH]3)csc12)Cc1ccccc1 [compound 397, (S)-3-Phenyl-N*1*-[2-pyridin-4-yl-7-(1H-pyrrol-2-yl)-thieno[3,2-d]pyrimidin-4-yl]-propane-1,2-diamine] |
| 4.40 to 5.00 | COc1cccc(-c2c(C(C)(C)C)sc3c(NC[C@@H](N)Cc4ccccc4)nc(-c4ccncc4)nc23)c1 [compound 441, (S)-N*1*-[6-tert-Butyl-7-(3-methoxy-phenyl)-2-pyridin-4-yl-thieno[3,2-d]pyrimidin-4-yl]-3-phenyl-propane-1,2-diamine] |
| > 7.00 | CNC(=O)c1csc2c(NC[C@@H](N)Cc3ccccc3)nc(-c3ccncc3)nc12 [compound 553, 4-((S)-2-Amino-3-phenyl-propylamino)-2-pyridin-4-yl-thieno[3,2-d]pyrimidine-7-carboxylic acid methylamide] |
| 4.40 to 5.00 | CC(C)(C)c1sc2c(NC[C@H](N)Cc3ccccc3)nc(-c3ccncc3)nc2c1Br [compound 335, (R)-N*1*-(7-Bromo-6-tert-butyl-2-pyridin-4-yl-thieno[3,2-d]pyrimidin-4-yl)-3-phenyl-propane-1,2-diamine] |
| 5.00 to 6.00 | NCc1coc(-c2csc3c(NC[C@@H](N)Cc4ccccc4)nc(-c4ccncc4F)nc23)c1 [compound 435, S)-N*1*-[7-(4-Aminomethyl-furan-2-yl)-2-(3-fluoro-pyridin-4-yl)-thieno[3,2-d]pyrimidin-4-yl]-3-phenyl-propane-1,2-diamine] |
| 5.00 to 6.00 | N[C@H](CNc1nc(-c2ccncc2Cl)nc2ccsc12)Cc1ccccc1 [compound 323, (S)-N*1*-[2-(3-Chloro-pyridin-4-yl)-thieno[3,2-d]pyrimidin-4-yl]-3-phenyl-propane-1,2-diamine] |
| 4.40 to 5.00 | COc1ncccc1-c1c(C)sc2c(NC[C@@H](N)Cc3ccccc3)nc(-c3ccncc3)nc12 [compound 465, (S)-N*1*-[7-(2-Methoxy-pyridin-3-yl)-6-methyl-2-pyridin-4-yl-thieno[3,2-d]pyrimidin-4-yl]-3-phenyl-propane-1,2-diamine] |
| 6.00 to 7.00 | Cc1sc2c(NC[C@@H](N)Cc3ccccc3)nc(-c3ccncc3)nc2c1C [compound 325, (S)-N*1*-(6,7-Dimethyl-2-pyridin-4-yl-thieno[3,2-d]pyrimidin-4-yl)-3-phenyl-propane-1,2-diamine] |
| 5.00 to 6.00 | Cc1ccccc1Nc1csc2c(N[C@@H]3CCNC3)nc(-c3ccncc3F)nc12 [compound 498, 2-(3-Fluoro-pyridin-4-yl)-N*4*-(R)-pyrrolidin-3-yl-N*7*-o-tolyl-thieno[3,2-d]pyrimidine-4,7-diamine] |
| > 7.00 | CCc1cc(-c2csc3c(NC[C@@H](N)Cc4ccccc4)nc(-c4ccncc4)nc23)[nH]n1 [compound 571, (S)-N*1*-[7-(5-Ethyl-2H-pyrazol-3-yl)-2-pyridin-4-yl-thieno[3,2-d]pyrimidin-4-yl]-3-phenyl-propane-1,2-diamine] |
| > 7.00 | Cc1cc(-c2csc3c(NC[C@@H](N)Cc4ccccc4)nc(-c4ccncc4)nc23)n[nH]1 [compound 569, (S)-N*1*-[7-(5-Methyl-1H-pyrazol-3-yl)-2-pyridin-4-yl-thieno[3,2-d]pyrimidin-4-yl]-3-phenyl-propane-1,2-diamine] |
| 6.00 to 7.00 | CCCC#Cc1csc2c(NC[C@@H](N)Cc3ccccc3)nc(-c3ccncc3)nc12 [compound 401, (S)-N*1*-(7-Pent-1-ynyl-2-pyridin-4-yl-thieno[3,2-d]pyrimidin-4-yl)-3-phenyl-propane-1,2-diamine] |
| 5.00 to 6.00 | NC(CNc1nc(-c2ccncc2F)nc2c(-c3ccc(F)cc3)csc12)Cc1ccccc1 (stereo in doubt) [compound 430, (R)-N*1*-[7-(4-Fluoro-phenyl)-2-(3-fluoro-pyridin-4-yl)-thieno[3,2-d]pyrimidin-4-yl]-3-phenyl-propane-1,2-diamine] |
| 5.00 to 6.00 | Cn1nccc1-c1csc2c(NC[C@@H](N)Cc3ccccc3)nc(-c3ccncc3)nc12 [compound 391, (S)-N*1*-[7-(2-Methyl-2H-pyrazol-3-yl)-2-pyridin-4-yl-thieno[3,2-d]pyrimidin-4-yl]-3-phenyl-propane-1,2-diamine] |

Same assay, conditions: full length PKCi at 15 μM ATP; read-out: IC50 in IMAP assay against full length PKCi (Activity)

| pIC50 | SMILES |
| --- | --- |
| 5.00 to 6.00 | N[C@H](CNc1nc(-c2ccncc2F)nc2sc3c(c12)CCCC3)Cc1ccccc1 [compound 101, (S)-N*1*-[2-(3-Fluoro-pyridin-4-yl)-5,6,7,8-tetrahydro-benzo[4,5]thieno[2,3-d]pyrimidin-4-yl]-3-phenyl-propane-1,2-diamine] |
| > 7.00 | Cc1sc2c(NC[C@@H](N)Cc3ccccc3)nc(-c3ccncc3)nc2c1Br [compound 300, (S)—N*1*-(7-bromo-6-methyl-2-pyridin-4-yl-thieno[3,2-d]pyrimidin-4-yl)-3-phenyl-propane-1,2-diamine] |
| 4.40 to 5.00 | NCCNc1nc(-c2ccncc2)nc2sc3c(c12)CCN(C(=O)c1ccccc1)C3 [compound 27, [4-(2-Amino-ethylamino)-2-pyridin-4-yl-5,8-dihydro-6H-pyrido[4′,3′:4,5]thieno[2,3-d]pyrimidin-7-yl]-phenyl-methanone] |
